Measurements reported in patent US20150352134A1, “COMPOSITION FOR TOPICAL SKIN APPLICATION CONTAINING GINSENOSIDE F2 DERIVED FROM HYDROPONIC GINSENG” (AMOREPACIFIC CORPORATION, priority 2012, published 2015).

Experiments:
[1] = test system: Keratinocytes isolated from the human epidermal tissue; experiment: Inhibition of reactive oxygen species formation after UVB (DCF-DA fluorescence); type: cell-based; conditions: 1% ginsenoside F2; for ratio to the ROS of the control group, elapsed time after exposure to 30 mJ/cm^2 of UVB 0 hr: 0 hr after 30 mJ/cm^2 UVB; for ratio to the ROS of the control group, elapsed time after exposure to 30 mJ/cm^2 of UVB 2 hrs: 2 hrs after 30 mJ/cm^2 UVB; for ratio to the ROS of the control group, elapsed time after exposure to 30 mJ/cm^2 of UVB 3 hrs: 3 hrs after 30 mJ/cm^2 UVB
Experimental: 5×10^4 Keratinocytes isolated from the human epidermal tissue are put in each well of a 24-well plate and immobilized for 24 hours. After 16 hours, the keratinocytes are treated with 1% ginsenoside F2. For a comparison, the control group is not treated with ginsenoside F2. Each well is removed of the culture medium after 2 hours and then fed with 100 μl of a phosphate-buffered saline (PBS) solution. The keratinocytes are exposed to 30 mJ/cm^2 of ultraviolet radiation under an ultraviolet B (UVB) lamp (Model: F15T8, UV B 15 W, Sankyo Denki Co., Ltd., Japan). Each well is removed of the PBS solution and then supplied with 200 μl of the keratinocyte culture medium. The well is treated with ginsenoside F2 again. Then, the quantity of the reactive oxygen species (ROS) increased by the UV stimulation is determined at defined time intervals. The quantity of the reactive oxygen species (ROS) is determined according to the method that includes measuring the fluorescence of dichlorofluorescin diacetate (DCF-DA) (Tan et al., 1998, J. Cell Biol. Vol. 141, pp 1423-1432).

collagenase (MMP-1) = experiment: Collagenase (MMP-1) expression in human fibroblasts (ELISA); type: cell-based; conditions: 10 μg/mL for 24 hours; not treated control = 100
Experimental: The ginsenoside F2 of the present invention is measured in regards to the inhibitory effect on the generation of collagenase in comparison with retinoic acid. […] The human fibroblasts are treated with ginsenoside F2 or retinoic acid at a concentration of 10 μg/mL for 24 hours. Then, the cell culture medium is collected. The production yield of collagenase in the collected cell culture medium is measured using a collagenase measurement instrument commercially available (Catalog #. RPN 2610, USA Amersham Pharma Inc.). Firstly, the collected cell culture medium is put in each well of a 96-well plate uniformly coated with the primary collagenase antibodies and then subjected to antigen-antibody reactions in a thermostat container for 3 hours. After 3 hours, the secondary collagenase antibodies coupled to the chromophore groups are put in each well of the 96-well plate and then allowed to react for more 15 minutes. […] The intensity of yellowness in the reaction mixture is varied depending on the progress of the reaction. The absorbance of the yellow-colored 96-well plate is measured at 405 nm with a spectrophotometer, and the expression level of collagenase is calculated according to the following mathematical formula 2. In this regard, the absorbance of the cell culture medium collected from the group not treated with the composition of the present invention is considered as the absorbance of the control. [formula]

tyrosinase = experiment: Tyrosinase inhibitory effect; type: biochemical, mushrooms; conditions: 37° C., absorbance 475 nm
Experimental: The tyrosinase as used herein is an enzyme extracted from mushrooms and purchased from Sigma-Aldrich. Firstly, tyrosine as a substrate is dissolved in distilled water to prepare a 0.3 mg/mL solution, which is added dropwise to a test tube at an amount of 1.0 mL each time. To the solution are added 1.0 mL of a potassium phosphate buffer solution (0.1 mol, pH 6.8) and 0.7 mL of distilled water.
0.2 mL of the sample solution is added to the reactant solution and then allowed to have a reaction in a thermostat container at 37° C. for 10 minutes. In this regards, the control is the reactant solution containing 0.2 mL of a solvent alone in place of each sample solution. The positive control uses ascorbic acid. 0.1 mL of a 2500 unit/mL tyrosinase solution is added to the reactant solution, which is then allowed to have a reaction again in a thermostat container at 37° C. for 10 minutes. The test tube filled with the reactant solution is put into an ice water to cause quenching and thus stop the reaction. The absorbance at 475 nm is measured with a photoelectric spectrophotometer. The tyrosinase inhibitory effect is calculated according to the following mathematical formula 3.

B16/F10 melanoma cells = experiment: Melanogenesis inhibition in B16/F10 melanoma cells; type: cell-based; conditions: sample containing 0.001 wt. % of test substance; 3-day cultivation
Experimental: As a test substance, a sample containing 0.001 wt. % of ginsenoside F2 or kojic acid is added to a culture medium of B16/F10 melanoma cells (available from Korean Cell Line Bank) at a predetermined concentration. The culture medium is eliminated after 3-day cultivation. The cells are washed with PBS and dissolved in 1N NaOH. Then, the absorbance at 405 nm is measured. The control is the cells not treated with any test substance. In comparison with the melanin content in the control group, the inhibitory ability of each test substance against melanogenesis is measured. […] [formula]

Human keratinocytes = experiment: Promotion of keratinocyte differentiation (cornified envelope, absorbance 340 nm); type: cell-based; conditions: ginsenoside 5 ppm, 5 days; low calcium negative control = 100
Experimental: The quantity of CE (Cornified Envelop) generated during differentiation of keratinocytes is measured in terms of absorbance in order to evaluate the ginsenoside F2 in regards to the effect of promoting differentiation of keratinocytes.
Human keratinocytes isolated from the epidermis of a newborn baby and subjected to a primary cultivation are immobilized in the bottom of a cultivation flask, treated with ginsenoside F2 applied to the culture medium to a concentration of 5 ppm, and cultured for 5 days until the keratinocytes grow to take up about 70 to 80% of the bottom area. In this regard, the negative control is the group treated with low calcium (0.03 mM), while the positive control is the group treated with high calcium (1.2 mM). Then, the cultured keratinocytes are harvested, washed with phosphate-buffered saline (PBS), treated with a 10 mM tris-HCl buffer solution (pH 7.4) containing 2% sodium dodecyl sulfate (SDS) and 20 mM dithiothreitol (DTT), and then subjected to sonication, boiling, and centrifugal isolation. The precipitation is suspended in 1 mL of PBS to measure the absorbance at 340 nm. Apart from this process, a part of the solution after sonication is collected and measured in regards to the protein content, which is determined as a reference in evaluating the degree of differentiation.

[2] = test system: DP6 (rat immortalized dermal papilla cell) line; experiment: Proliferation of hair follicle dermal papilla cells (WST-1); type: cell-based; conditions: 24 hours, not treated control = 100
Text: The keratin protein constituting hair is produced by the keratinocytes in the hair roots, and the keratinocytes are differentiated from the hair papilla cells. To evaluate the composition of the present invention in regards to the effect to enhance the activity of hair papilla cells, the present invention uses DP6 (rat immortalized dermal papilla cell) line (Wendy Filsell, Journal of Cell Science 107, 1761-1772 (1994)). The hair papilla cells used in the present invention are a cell line isolated from the hair roots of male PVG rats by the microdissection method and cultured with DMEM (Dulbecco's modified eagle's medium, Gibco BRL, Gaithersburg, Md., U.S.A.) containing 10% FBS (Fetal Bovine Serum) in an incubator under the conditions of 5% CO2 and 37° C. for 24 hours. DP6 is put in the 96-well plate, cultured in an incubator at 37° C. for 24 hours and treated with the ginsenoside F2 of the present invention independently at a concentration of 5 ppm, 10 ppm, or 20 ppm. 24 hours after the treatment, the cell proliferation ability is measured using a WST-1 kit (Roche).

Melanin-a cells = experiment: Melanogenesis promotion in Melanin-a cells; type: cell-based; conditions: 3 days, DMSO (0.1%) = 100
Experimental: Melanin-a cells are injected in a 24-well microtiter plate at a rate of 50,000 cells per well with an RPMI medium containing 5% fetal bovine serum, 100 IU penicillin G, and 0.2 μM TPA. Next day, the cells are treated with ginsenoside F2 as a test substance independently at the final concentration of 10 ppm or 50 ppm. The negative control is treated with 0.1% DMSO, and the positive control is treated with 100 μM IBMX. Then, the cells are cultured at 37° C. for 3 days. The wells of the plate are washed with PBS, and 100 μl of 1N NaOH is added to each well to dissolve melanin in the cells. The absorbance of the dissolved melanin is measured at 405 nm with a microplate reader. The effect of the ginsenoside F2 to promote melanogenesis is evaluated in comparison with that of the control groups.

SMILES	ratio to the ROS of the control group, elapsed time after exposure to 30 mJ/cm^2 of UVB 0 hr [1]	ratio to the ROS of the control group, elapsed time after exposure to 30 mJ/cm^2 of UVB 2 hrs [1]	ratio to the ROS of the control group, elapsed time after exposure to 30 mJ/cm^2 of UVB 3 hrs [1]	Collagenase expression level(%) (collagenase (MMP-1))	Tyrosinase inhibition rate (%) (tyrosinase)	Melanogenesis inhibition rate (%) (B16/F10 melanoma cells)	Differentiation in keratinocytes (%) (Human keratinocytes)	Cell proliferation ability (%) ([2]; 5 ppm)	Cell proliferation ability (%) ([2]; 10 ppm)	Cell proliferation ability (%) ([2]; 20 ppm)	Yield of Melanin (%) (Melanin-a cells; 10 ppm)	Yield of Melanin (%) (Melanin-a cells; 50 ppm)
CC(C)=CCC[C@](C)(O[C@@H]1O[C@H](CO)[C@@H](O)[C@H](O)[C@H]1O)[C@H]1CC[C@]2(C)[C@@H]1[C@H](O)C[C@@H]1[C@@]3(C)CC[C@H](O[C@@H]4O[C@H](CO)[C@@H](O)[C@H](O)[C@H]4O)C(C)(C)[C@@H]3CC[C@]12C [Ginsenoside F2, ginsenoside F2]	100	251	286	73	69	72	309	116	122	138	113	129
CC(C)=CCC[C@](C)(O[C@@H]1O[C@H](CO[C@@H]2O[C@H](CO)[C@@H](O)[C@H](O)[C@H]2O)[C@@H](O)[C@H](O)[C@H]1O)[C@H]1CC[C@]2(C)[C@@H]1[C@H](O)C[C@@H]1[C@@]3(C)CC[C@H](O[C@@H]4O[C@H](CO)[C@@H](O)[C@H](O)[C@H]4O[C@@H]4O[C@H](CO)[C@@H](O)[C@H](O)[C@H]4O)C(C)(C)[C@@H]3CC[C@]12C [Ginsenoside Rb1]	100	302	354	74	60	61	265	114	118	127	112	120
